How the values were obtained:
[1] = system: human non-small cell lung cancer A549 cells; test: SRB assay, A549 cells; type: cell-based; settings: SRB growth inhibition, 48 hrs or 72 hrs
Experimental: (§1) NCI/ADR-RES cell line was obtained from DTP Human Tumor Cell Line Screen (Developmental Therapeutics Program, NCI). Other cancer cell lines (A549, Hep G2, Hep 3B, DU-145, LNCaP, and PC-3) were obtained from American Type Culture Collection (Rockville, Md.). These cancer cells were cultured in RPMI1640 medium with 10% (v/v) fetal bovine serum (FBS) and penicillin (100 units/mL)/streptomycin (100 μg/mL). Cultures were maintained in a humidified incubator at 37° C. in 5% CO2/95% air.
(§2) Cells were seeded in 96-well plates in medium with 5% FBS for 24 hrs. They were then further incubated with a vehicle (0.1% DMSO) as control or a test compound for 48 hrs or 72 hrs. The control- or compound-treated cells were fixed with 10% TCA and stained with SRB at 0.4% (w/v) in 1% acetic acid. Unbound SRB was washed off by 1% acetic acid and SRB-bound cells were solubilized with 10 mM Trizma base.
(§3) Using an absorbance (515 nm) measurement, the amounts of cellular proteins indicating cell numbers at time zero (T0), in control (C), and in the presence of the test compound (Tx) were obtained. The percentage growth was calculated at each of the compound concentration levels. Percentage growth inhibition was calculated as: 100−[(Tx−T0)/(C−T0)]×100. […]

PC-3 cells [2] = test: Western blot of Bcl-2 family proteins, caspases and PARP; type: cell-based, human; settings: 10 μM, 0 hr to 36 hrs
Experimental: Effect of benzimidazole compounds on inducing apoptosis was evaluated by testing their effect on the expression/activation of Bcl-2 family member proteins, caspases, and c-Jun N-terminal kinase (JNK). Bcl-2 family of proteins is the most important regulators of mitochondria-involved apoptotic cell death. The pro-apoptotic members, Bax, Bak and Bad, are required for the disruption of mitochondria; whereas the anti-apoptotic Bcl-2, Bcl-xL and Mcl-1 can prevent apoptosis by antagonizing the pro-apoptotic members.
PC-3 cells were incubated with a vehicle (0.1% DMSO) or Compound 55 (10 μM) for 0 hr, 6 hrs, 12 hrs, 18 hrs, 24 hrs, and 36 hrs. Then, the cells were harvested and lysed for the detection of protein expression with specific antibodies by western blot analysis. For Western blotting, the proteins (40 μg) in the lysis (including Phospho-Bcl-2, Bcl-2, Phospho-Bcl-xL, Bcl-xL, Mcl-1, Bax, Bak, Bad, GAPDH, cleaved Bad, Caspase-9, cleaved Caspase-9, Caspase-3, cleaved Caspase-3, poly-(ADP-ribose) polymerase (PARP), cleaved PARP, and GAPDH) were separated by electrophoresis in a 10 to 15% polyacrylamide gel, transferred to a nitrocellulose membrane and immuno-reacted with specific antibodies.

PC-3 cells [3] = test: Western blotting of Ras, Raf-1, MEK; type: cell-based, human; settings: 10 μM
Experimental: (§4) PC-3 cells were incubated with a vehicle (0.1% DMSO) as control or Coumpound 55 (10 μM) for 30 min, 45 min, 60 min, and 120 min for testing Ras; or for 6 hrs, 12 hrs, 18 hrs, and 24 hrs for testing Raf-1, Phospho-MEK, MEK, and GAPDH. After the treatment, cells were washed twice with ice-cold PBS and then lysed with 100 μL lysis buffer (20 mM Tris, pH 7.5, 1 mM MgCl2, 125 mM NaCl, 1% Triton X-100, 1 mM phenylmethylsulphonylfluoride, 10 μg/mL leupeptin, 10 μg/mL aprotinin, 25 mM β-glycerophosphate, 50 mM NaF, and 100 μM sodium orthovanadate). Then, the expressions of the above proteins were detected by Western blotting.

[4] = system: hepatocellular carcinoma Hep3B cells; test: SRB assay, Hep3B cells; type: cell-based; settings: Homo sapiens, SRB growth inhibition, 48 hrs or 72 hrs
Experimental: as §1, §2, §3

PC-3 cells [5] = test: In situ tubulin assay (immunofluorescence microscopy); type: cell-based, human; settings: 18 to 24 h
Experimental: The organization and formation of microtubule were detected by immunofluorescence microscopic examination in PC-3 cells.
PC-3 cells were seeded in 8-well chamber slides and incubated with a vehicle (0.1% DMSO, control), Compound 55 (10 μM), taxol (0.1 μM), or vincristine (0.1 μM) for 18 to 24 h. Then, the cells were fixed with 100% methanol at −20° C. for 5 min and incubated in 1% bovine serum albumin (BSA) containing 0.1% Triton X-100 at 37° C. for 30 min. Cells were then washed twice with PBS for 5 min and stained with primary antibody specific to β-tubulin at 37° C. for 1 h. Afterwards, FITC-labeled secondary antibodies were used (staining performed at 37° C. for 40 min, green fluorescence) and the protein was detected using a confocal laser microscopic system (Leica TCS SP2). The nuclei were visible by DAPI staining (1 mg/mL DAPI, blue fluorescence).

Tubulin proteins = test: In vitro tubulin turbidity assay; type: biochemical; settings: 37° C., 60 min
Experimental: Effects of the benzimidazole compounds on tubulin polymerization were detected using CytoDYNAMIX Screen 03 kit (Cytoskeleton, Inc., Denver, Colo.).
Tubulin proteins (>99% purity) were suspended in G-PEM buffer containing 80 mM PIPES, 2 mM MgCl2, 0.5 mM EDTA, and 1.0 mM GTP (pH 6.9) and 5% glycerol with or without a test compound. Then, the mixture was transferred to a 96-well plate and the absorbance was measured at 340 nm (37° C.) for 60 min (SpectraMAX Plus, Molecular Devices Inc., Sunnyvale, Calif.).
Level of tubulin polymerization was determined by examining turbidity of the tubulin suspension. Absorbance of the suspension at 340 nm was plotted as a function of time. Accordingly, the velocity and magnitude of tubulin polymerization were determined.

LNCaP cells = test: SRB assay, LNCaP cells; type: cell-based; settings: Homo sapiens, SRB growth inhibition, 48 hrs or 72 hrs
Experimental: as §1, §2, §3

[6] = system: prostate cancer PC-3 cells; test: SRB assay, PC-3 cells; type: cell-based; settings: Homo sapiens, SRB growth inhibition, 48 hrs or 72 hrs
Experimental: as §1, §2, §3

[7] = system: hepatocellular carcinoma HepG2 cells; test: SRB assay, HepG2 cells; type: cell-based; settings: Homo sapiens, SRB growth inhibition, 48 hrs or 72 hrs
Experimental: as §1, §2, §3

PC-3 cells [8] = test: Western blot analysis of cell-cycle regulators; type: cell-based, human; settings: 10 μM
Experimental: as §4
The cell-cycle regulators were also examined by Western blot analysis. Proteins in the lysis (40 μg) were separated by electrophoresis in a 10 or 15% polyacrylamide gel, transferred to a nitrocellulose membrane and immuno-reacted with respective antibodies against Cyclin E, Cyclin A, Cyclin B1, Cdk1, Cdk2, p27, MPM2, and GAPDH.

PC-3 cells [9] = test: FACScan flow cytometric analysis of cell cycle; type: cell-based, human; settings: 1 μM, 3 μM, and 10 μM, 0 hr to 48 hrs
Experimental: PC-3 cells were treated with Compound 55 (at different concentrations: 1 μM, 3 μM, and 10 μM) for 0 hr, 6 hrs, 12 hrs, 18 hrs, 24 hrs, 36 hrs, and 48 hrs. After treatment, cells were washed twice with ice-cold PBS, collected by centrifugation and fixed in 70% (v/v) ethanol at 4° C. for 30 min. Then, cells were treated with 0.2 ml of a buffer (containing 0.2 M Na2HPO4 and 0.1 M citric acid buffer, pH 7.8) for 30 min, centrifuged, and then incubated in 1 mL propidium iodide (PI) staining buffer (0.1% Triton X-100, 100 μg/mL RNase A, 80 μg/mL propidium iodide in PBS) at 37° C. for 30 min. Cells were detected using a cytofluorometer, and analyzed by FACScan and CellQuest program (Becton Dickinson).

[10] = system: P-glycoprotein (P-gp)-rich breast cancer NCI/ADR-RES cells; test: SRB assay, NCI/ADR-RES cells; type: cell-based; settings: Homo sapiens, SRB growth inhibition, 48 hrs or 72 hrs
Experimental: as §1, §2, §3

DU-145 cells = test: SRB assay, DU-145 cells; type: cell-based; settings: Homo sapiens, SRB growth inhibition, 48 hrs or 72 hrs
Experimental: as §1, §2, §3

## COc1cc(Cn2c(-c3ccccc3)nc3cc(N4CCCC4)ccc32)cc(OC)c1OC [Compound 55, 2-phenyl-5-(pyrrolidin-1-yl)-1-(3,4,5-trimethoxybenzyl)-1H-benzo[d]imidazole]
[1]
  IC50: 2400 nM
PC-3 cells [2]
  Bcl-2 phosphorylation and degradation: induced the phosphorylation and degradation
  Bcl-xL phosphorylation and degradation: induced the phosphorylation and degradation
  Mcl-1 expression: decrease
  PARP cleavage: cleaved to produce catalytically active fragments
  caspase-3 cleavage: cleaved to produce catalytically active fragments
  caspase-9 cleavage: cleaved to produce catalytically active fragments
  cleavage of pro-apoptotic Bad: cleavage of pro-apoptotic Bad into 15-kDa fragments was unexpectedly induced
PC-3 cells [3]; 30 min to 120 min
  Ras expression: upregulated
PC-3 cells [3]; 6 hrs to 24 hrs
  MEK expression: upregulated
  Raf-1 expression: upregulated
[4]
  IC50: 2400 nM
PC-3 cells [5]; 10 μM
  spindle and nuclei morphology (in situ labeling of tubulin and chromosomes): mono-polar
Tubulin proteins
  tubulin polymerization (turbidity, absorbance at 340 nm): inhibited tubulin polymerization in a dose-dependent manner
LNCaP cells
  IC50: 1700 nM
[6]
  IC50: 2300 nM
[7]
  IC50: 3300 nM
PC-3 cells [8]
  cyclin A expression: downregulated
  cyclin B1 expression: upregulated
  cyclin E expression: downregulated
  expression of p27 (a Cdk inhibitor): decreased
PC-3 cells [9]
  cell population at G2/M phase: induced an increase
  hypodiploid (sub-G1, apoptosis) population of the cell cycle: subsequent increase
[10]
  IC50: 3700 nM
DU-145 cells
  IC50: 2300 nM

## CC(=O)O[C@H]1C(=O)[C@@]2(C)[C@H]([C@H](OC(=O)c3ccccc3)[C@]3(O)C[C@H](OC(=O)[C@H](O)[C@@H](NC(=O)c4ccccc4)c4ccccc4)C(C)=C1C3(C)C)[C@]1(OC(C)=O)CO[C@@H]1C[C@@H]2O [taxol]
PC-3 cells [5]; 0.1 μM
  spindle and nuclei morphology (in situ labeling of tubulin and chromosomes): multi-polar spindles and multiple nuclei were formed

## CC[C@]1(O)C[C@H]2CN(CCc3c([nH]c4ccccc34)[C@@](C(=O)OC)(c3cc4c(cc3OC)N(C=O)[C@H]3[C@@](O)(C(=O)OC)[C@H](OC(C)=O)[C@]5(CC)C=CCN6CC[C@]43[C@@H]65)C2)C1 [vincristine]
PC-3 cells [5]; 0.1 μM
  spindle and nuclei morphology (in situ labeling of tubulin and chromosomes): multi-polar spindles and chromosome condensation were observed

From patent US8501957B2, “Benzimidazole compounds and their use as anticancer agents” (China Medical University, priority 2008, dated 2013)
